We go through 3 molecules from patent US8324209B2, “Pesticidal compositions” (Dow AgroSciences, LLC, priority 2008, dated 2012).

The test deals with cotton aphid (Aphis gossypii). Description: Insecticidal test for cotton aphid in foliar spray assay on squash. The settings on record: 200 ppm foliar spray on squash cotyledons; live aphids counted after 3 days; Corrected % Control (Abbott's formula); 4 replications. Type of test: in vivo. The procedure:
The compounds identified in the foregoing examples were tested against cotton aphid using procedures described hereinafter. Insecticidal Test for Cotton Aphid (Aphis gossypii) in Foliar Spray Assay Squash seedlings with fully expanded cotyledon leaves were trimmed to one cotyledon per plant and infested with cotton aphid (wingless adults and nymphs) 1 day prior to chemical application. Each plant was examined before chemical application to ensure uniform infestation (ca. 30-70 aphids per plant). Compounds (2 mg) were dissolved in 2 mL of acetone/methanol (1:1) solvent, forming stock solutions of 1000 ppm. The stock solutions were diluted 5× with 0.025% Tween 20 in H2O to obtain a solution at 200 ppm. A hand-held Devilbiss aspirator type sprayer was used to apply the spray solutions until runoff to both sides of the squash cotyledon leaves. Four plants (4 replications) were used for each compound. Reference plants (solvent check) were sprayed with the diluent only. Treated plants were held in a holding room for 3 days at approximately 23° C. and 40% relative humidity (RH) before the number of live aphids on each plant was recorded. Insecticidal activity was measured by Corrected % Control using Abbott's correction formula and presented in Table 1-Activity: Corrected % Control=100*(X−Y)/X • where X=No. of live aphids on solvent check plants • Y=No. of live aphids on treated plants Results are shown in Table 1.

Consider `CC(c1cnc(C(F)(F)F)nc1)S(C)(=O)=NC#N` (stereo not drawn) [Compound 3, methyl(oxido){1-[2-(trifluoromethyl)pyrimidin-5-yl]ethyl}-λ^4-sulfanylidenecyanamide], for which the “% Control at ppm, against cotton aphid on squash (foliar spray)” value (“% Control at ppm, against cotton aphid” below) is on record as “A (80-100)”.

In the case of `CC(c1cnc(Cl)nc1)S(C)(=O)=NC#N` (stereo not drawn) [Compound 1, [1-(2-chloropyrimidin-5-yl)ethyl](methyl)oxido-λ^4-sulfanylidenecyanamide], the “% Control at ppm, against cotton aphid” value is reported as “A (80-100)”.

As to `CS(=O)(Cc1ccc(Cl)nn1)=NC#N` (stereo not drawn) [Compound 2, [(3-chloropyridazin-6-yl)methyl](methyl)oxido-λ^4-sulfanylidenecyanamide], the “% Control at ppm, against cotton aphid” value is given as “A (80-100)”.
